From US8802597B2, “Herbicidal pyrimidines” (E I du Pont de Nemours and Company, priority 2003, dated 2014)
Like-named read-outs stand apart in the source and are kept apart here.

Key:
Assay type in all cases: in vivo
[1] = system: blackgrass (Alopecurus myosuroides); experiment: Test B postemergence; conditions: scale 0 to 100 (0 no effect, 100 complete control)
Procedure, shortened: (§1)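 Visual rating, 0 (no effect) to 100 (complete control) versus controls, taken 13–15 days after treatment in greenhouse. Compounds formulated in non-phytotoxic solvent plus surfactant; pre: sprayed after seeding; post: plants at 1- to 4-leaf stage, 2–18 cm.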

wild oat (Avena fatua) = experiment: Test B postemergence; conditions: scale 0 to 100 (0 no effect, 100 complete control)
Procedure, shortened: as §1

[2] = system: cocklebur (Xanthium strumarium); experiment: Test B pre/postemergence; conditions: for pest or weed control at 62 g/ha: Xanthium strumarium, 62 g ai/ha
Procedure, shortened: as §1

[3] = system: velvetleaf (Abutilon theophrasti); experiment: Test B pre/postemergence; conditions: for pest or weed control at 62 g/ha: Abutilon theophrasti, 62 g ai/ha
Procedure, shortened: as §1

[4] = system: Surinam grass (Brachiaria decumbens); experiment: Test B pre/postemergence; conditions: for pest or weed control at 62 g/ha: Urochloa decumbens, 62 g ai/ha
Procedure, shortened: as §1

[5] = system: barnyardgrass (Echinochloa crus-galli); experiment: Test B pre/postemergence; conditions: scale 0 to 100 (0 no effect, 100 complete control); for pest or weed control at 62 g/ha: Echinochloa crus-galli, 62 g ai/ha
Procedure, shortened: as §1

[6] = system: wheat (Triticum aestivum); experiment: Test B pre/postemergence; conditions: scale 0 to 100 (0 no effect, 100 complete control); for plant injury at 62 g/ha: Triticum aestivum, 62 g ai/ha
Procedure, shortened: as §1

[7] = system: pigweed (Amaranthus retroflexus); experiment: Test B pre/postemergence; conditions: for pest or weed control at 62 g/ha: Amaranthus retroflexus, 62 g ai/ha
Procedure, shortened: as §1

[8] = system: crabgrass (Digitaria sanguinalis); experiment: Test B pre/postemergence; conditions: for pest or weed control at 62 g/ha: Digitaria sanguinalis, 62 g ai/ha
Procedure, shortened: as §1

[9] = system: morningglory (Ipomoea coccinea); experiment: Test B pre/postemergence; conditions: for pest or weed control at 62 g/ha: Ipomoea, 62 g ai/ha
Procedure, shortened: as §1

[10] = system: lambsquarters (Chenopodium album); experiment: Test B pre/postemergence; conditions: for pest or weed control at 62 g/ha: Chenopodium album, 62 g ai/ha
Procedure, shortened: as §1

corn (Zea mays) = experiment: Test B pre/postemergence
Procedure, shortened: as §1

[11] = system: giant foxtail (Setaria faberii); experiment: Test B pre/postemergence; conditions: for pest or weed control at 62 g/ha: Setaria faberi, 62 g ai/ha
Procedure, shortened: as §1

[12] = system: barnyardgrass (Echinochloa crus-galli); experiment: Test B flooded paddy test; conditions: Echinochloa crus-galli, Flood, scale 0 to 100, read-out: Plant response rating, Barnyardgrass
Procedure, shortened: (§2)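 Rice, umbrella sedge, duck salad and barnyardgrass grown to 2-leaf stage under flooded paddy conditions and treated with formulated test chemicals. Kept in greenhouse 13–15 days, then visually rated against untreated controls on a 0–100 scale (0 no effect, 100 complete control).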

rice (Oryza sativa) = experiment: Test B flooded paddy test; conditions: Oryza sativa, Flood, scale 0 to 100, read-out: Plant response rating, Rice
Procedure, shortened: as §2

[13] = system: umbrella sedge (Cyperus difformis); experiment: Test B flooded paddy test; conditions: Cyperus difformis, Flood, scale 0 to 100, read-out: Plant response rating, Sedge, Umbrella
Procedure, shortened: as §2

[14] = system: duck salad (Heteranthera limosa); experiment: Test B flooded paddy test; conditions: Heteranthera limosa, Flood, scale 0 to 100, read-out: Plant response rating, Ducksalad
Procedure, shortened: as §2

[15] = Postemergence, 125 g ai/ha, scale 0 to 100 (0 no effect, 100 complete control)
[16] = Preemergence, 125 g ai/ha, scale 0 to 100 (0 no effect, 100 complete control)

Q: What does the source list for `Nc1nc(C2CC2)nc(C(=O)[O-])c1Br.[Na+]` [Compound 113, 6-amino-5-bromo-2-cyclopropyl-4-pyrimidinecarboxylic acid monosodium salt]?
A: Blackgrass plant response rating ([1]; 125 g ai/ha): 40; pest or weed control at 62 g/ha ([1]; Alopecurus myosuroides, post-emergence, 62 g ai/ha, read-out: Blackgrass plant response rating): 30%; Oat, Wild plant response rating (wild oat (Avena fatua); 125 g ai/ha): 50; pest or weed control at 62 g/ha (wild oat (Avena fatua); Avena fatua, post-emergence, 62 g ai/ha, read-out: Oat, Wild plant response rating): 40%; Cocklebur plant response rating [2, 15]: 90; Plant response rating, Cocklebur [2, 16]: 80; pest or weed control at 62 g/ha ([2]; post-emergence, Postemergence, scale 0 to 100 (0 no effect, 100 complete control), read-out: Cocklebur plant response rating): 90%; pest or weed control at 62 g/ha ([2]; pre-emergence, Preemergence, scale 0 to 100, 0 no effect, 100 complete control, read-out: Plant response rating, Cocklebur): 70%; pest or weed control at 62 g/ha ([3]; post-emergence, Postemergence, scale 0 to 100 (0 no effect, 100 complete control), read-out: Velvetleaf plant response rating): 60%; pest or weed control at 62 g/ha ([3]; pre-emergence, Preemergence, scale 0 to 100, 0 no effect, 100 complete control, read-out: Plant response rating, Velvetleaf): 80%; Velvetleaf plant response rating [3, 15]: 80; Plant response rating, Velvetleaf [3, 16]: 90; Surinam Grass plant response rating [4, 15]: 80; Plant response rating, Surinam Grass [4, 16]: 60; pest or weed control at 62 g/ha ([4]; post-emergence, Postemergence, scale 0 to 100 (0 no effect, 100 complete control), read-out: Surinam Grass plant response rating): 30%; pest or weed control at 62 g/ha ([4]; pre-emergence, Preemergence, scale 0 to 100, 0 no effect, 100 complete control, read-out: Plant response rating, Surinam Grass): 20%; pest or weed control at 62 g/ha ([5]; post-emergence, Postemergence, read-out: Barnyardgrass plant response rating): 50%; pest or weed control at 62 g/ha ([5]; pre-emergence, Preemergence, read-out: Plant response rating, Barnyardgrass): 0%; Barnyardgrass plant response rating ([5]; Postemergence, 125 g ai/ha): 80; Plant response rating, Barnyardgrass ([5]; Preemergence, 125 g ai/ha): 20; Wheat plant response rating ([6]; Postemergence, 125 g ai/ha): 50; Plant response rating, Wheat ([6]; Preemergence, 125 g ai/ha): 60; plant injury at 62 g/ha ([6]; post-emergence, Postemergence, read-out: Wheat plant response rating): 30%; plant injury at 62 g/ha ([6]; pre-emergence, Preemergence, read-out: Plant response rating, Wheat): 10%; pest or weed control at 62 g/ha ([7]; post-emergence, Postemergence, scale 0 to 100 (0 no effect, 100 complete control), read-out: Pigweed plant response rating): 70%; pest or weed control at 62 g/ha ([7]; pre-emergence, Preemergence, scale 0 to 100, 0 no effect, 100 complete control, read-out: Plant response rating, Pigweed): 70%; Pigweed plant response rating [7, 15]: 90; Plant response rating, Pigweed [7, 16]: 90; pest or weed control at 62 g/ha ([8]; post-emergence, Postemergence, scale 0 to 100 (0 no effect, 100 complete control), read-out: Crabgrass plant response rating): 20%; pest or weed control at 62 g/ha ([8]; pre-emergence, Preemergence, scale 0 to 100, 0 no effect, 100 complete control, read-out: Plant response rating, Crabgrass): 40%; Crabgrass plant response rating [8, 15]: 40; Plant response rating, Crabgrass [8, 16]: 70; pest or weed control at 62 g/ha ([9]; post-emergence, Postemergence, scale 0 to 100 (0 no effect, 100 complete control), read-out: Morningglory plant response rating): 90%; pest or weed control at 62 g/ha ([9]; pre-emergence, Preemergence, scale 0 to 100, 0 no effect, 100 complete control, read-out: Plant response rating, Morningglory): 50%; Morningglory plant response rating [9, 15]: 90; Plant response rating, Morningglory [9, 16]: 60; pest or weed control at 62 g/ha ([10]; post-emergence, Postemergence, scale 0 to 100 (0 no effect, 100 complete control), read-out: Lambsquarters plant response rating): 80%; pest or weed control at 62 g/ha ([10]; pre-emergence, Preemergence, scale 0 to 100, 0 no effect, 100 complete control, read-out: Plant response rating, Lambsquarters): 70%; Lambsquarters plant response rating [10, 15]: 90; Plant response rating, Lambsquarters [10, 16]: 80; Corn plant response rating (corn (Zea mays); [15]): 40; Plant response rating, Corn (corn (Zea mays); [16]): 20; plant injury at 62 g/ha (corn (Zea mays); Zea mays, post-emergence, Postemergence, 62 g ai/ha, scale 0 to 100 (0 no effect, 100 complete control), read-out: Corn plant response rating): 10%; Corn plant response rating (crop injury, 0 = no effect, 100 = complete kill) at 62 g/ha (corn (Zea mays); Zea mays, pre-emergence, Preemergence, 62 g ai/ha, scale 0 to 100, 0 no effect, 100 complete control): 0%; Foxtail, Giant plant response rating [11, 15]: 50; Plant response rating, Foxtail, Giant [11, 16]: 10; pest or weed control at 62 g/ha ([11]; post-emergence, Postemergence, scale 0 to 100 (0 no effect, 100 complete control), read-out: Foxtail, Giant plant response rating): 20%; pest or weed control at 62 g/ha ([11]; pre-emergence, Preemergence, scale 0 to 100, 0 no effect, 100 complete control, read-out: Plant response rating, Foxtail, Giant): 0%; pest or weed control at 125 g/ha ([12]; 125 g ai/ha): 0%; pest or weed control at 500 g/ha ([12]; 500 g ai/ha): 0%; plant injury at 125 g/ha (rice (Oryza sativa); 125 g ai/ha): 0%; plant injury at 500 g/ha (rice (Oryza sativa); 500 g ai/ha): 0%; pest or weed control at 125 g/ha ([13]; 125 g ai/ha): 0%; pest or weed control at 500 g/ha ([13]; 500 g ai/ha): 0%; pest or weed control at 125 g/ha ([14]; 125 g ai/ha): 0%; pest or weed control at 500 g/ha ([14]; 500 g ai/ha): 0%
